Values quoted from earlier work in patent publication US20050239864A1, “Novel tumor-selective chemotherapeutic agents” (priority 2004, published 2005).

Tests used:
HSA = HSA (Homo sapiens, UniProt P02768); settings: exogenously added HSA; cited from earlier work
[1] = tested on: MDA-MB 435 human breast cancer; settings: cited from earlier work
endogenous albumin = target: T1, endogenous albumin (Homo sapiens, UniProt P02768); settings: human blood plasma; cited from earlier work
T1 construct: To determine the coupling rate and selectivity of Dox-MH for endogenous albumin, Dox-MH was incubated with human blood plasma; from tissue; host or cells: human blood plasma

[2] = tested on: mouse renal RENCA, human breast cancers MDA-MB 435 and MCF-7; settings: three animal tumor models; cited from earlier work

Chain of HSA (P02768 25-609): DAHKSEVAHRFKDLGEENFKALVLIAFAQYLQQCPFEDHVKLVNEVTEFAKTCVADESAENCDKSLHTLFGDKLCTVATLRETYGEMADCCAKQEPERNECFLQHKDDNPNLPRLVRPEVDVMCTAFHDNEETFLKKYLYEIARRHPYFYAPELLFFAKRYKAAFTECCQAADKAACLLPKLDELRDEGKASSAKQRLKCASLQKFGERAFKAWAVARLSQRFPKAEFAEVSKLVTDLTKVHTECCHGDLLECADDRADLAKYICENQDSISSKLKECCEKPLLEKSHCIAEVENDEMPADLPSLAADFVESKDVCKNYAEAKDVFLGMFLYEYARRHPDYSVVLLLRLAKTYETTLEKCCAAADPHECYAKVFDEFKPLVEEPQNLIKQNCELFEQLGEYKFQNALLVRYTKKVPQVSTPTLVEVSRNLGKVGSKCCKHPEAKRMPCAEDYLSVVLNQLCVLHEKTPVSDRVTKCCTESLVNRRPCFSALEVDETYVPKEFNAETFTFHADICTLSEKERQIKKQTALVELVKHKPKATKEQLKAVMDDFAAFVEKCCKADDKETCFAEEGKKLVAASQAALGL
T1 sequence (P02768 25-609): as above

COc1cccc2c1C(=O)c1c(O)c3c(c(O)c1C2=O)C[C@@](O)(/C(CO)=N/NC(=O)CCCCCN1C(=O)C=CC1=O)C[C@@H]3O[C@H]1C[C@H](N)[C@H](O)[C@H](C)O1 [Dox-MH]
time by which all had reacted with HSA (HSA): ≤ 90 min
time by which majority had reacted with HSA (HSA): ≤ 5 min
antitumor response ([1]; Dox-MH at optimal dose (3×23 mg/kg)): complete remissions were achieved
change in body weight ([1]; after 24 days of drug administration): did not produce an overall change in body weight
time after which reaction with HSA was almost complete (endogenous albumin): 2 min
time by which all had reacted (endogenous albumin): ≤ 90 min
antitumor efficacy and toxicity versus free doxorubicin [2]: distinctly superior to free doxorubicin
